Reference: patent US20210323950A1, “HERBICIDALLY ACTIVE BICYCLIC BENZOYLPYRAZOLES” (Bayer Aktiengesellschaft, priority 2018, published 2021)

Tested on: Cyperus esculentus (CYPES)
Experiment: Pre-emergence herbicidal action against CYPES
Format: in vivo
Details: 320 g/ha, scored visually after about 3 weeks vs untreated controls
Excerpt: CYPES: Cyperus esculentus 1. Pre-Emergence Herbicidal Action and Crop Plant Compatibility Seeds of monocotyledonous and dicotyledonous weed plants and crop plants are placed in plastic or organic planting pots and covered with soil. The compounds of the invention, formulated in the form of wettable powders (WP) or as emulsion concentrates (EC), are then applied onto the surface of the covering soil as aqueous suspension or emulsion with addition of 0.5% additive at a water application rate of […] (converted). After the treatment, the pots are placed in a greenhouse and kept under good growth conditions for the trial plants. After about 3 weeks, the effect of the preparations is scored visually in comparison with untreated controls as percentages. The tables below show the herbicidal activity of numerous compounds according to the invention against important harmful plants. For example, 100% activity=the plants have died, 0% activity=like control plants.

Cn1ncc(C(=O)c2ccc(C(F)(F)F)c3c2OC[S+]3[O-])c1O (stereo not shown) [Example 1-28]
Pre-emergence action against CYPES: 90%
